Assay results reported in publication PMC7179653 (Antimicrobial Agents and Chemotherapy, 2020).

Test: Intensive ECG monitoring and exposure-response analysis of QTcF
Format: in vivo, human
Description: Safety assessments included monitoring of AEs, laboratory safety tests (hematology, serum chemistry, and urinalysis), 12-lead ECG (discrete recordings and 24-h Holter recording), and vital signs (blood pressure, pulse rate, and body temperature). In the SAD study, safety assessments were performed predose at screening, at day 1, postdose periodically on days 1, 2, and 7 (follow-up), and at early withdrawal, if relevant. […] In the MAD study, safety assessments were done predose at screening, at day 2, postdose periodically on days 1, 2, 4, 7, and 8, on days 13 to 15 (follow-up), and at early withdrawal, if relevant. […] On all other days, a single predose sample was collected for pharmacokinetic evaluation prior to the morning infusion. Blood was collected into lithium-heparin tubes and stored at a nominal –80°C temperature until analysis.

SMILES: NCCONC(=O)[C@@H]1CC[C@@H]2CN1C(=O)N2OS(=O)(=O)O [Nacubactam]
- treatment estimate, linear model of change in QTcF vs plasma concentration (90% CI, 3.8879 to 1.9931, P = 0.59): 0.9474
- slope estimate, linear model of change in QTcF vs plasma concentration (P = 0.73): 0.00422
- upper limit of the two-sided 90% CI of predicted change from baseline in QTcF (at the Cmax of 325 μg/ml, each of the three models): < 10 ms
- predicted mean change from baseline in QTcF (at the Cmax of 325 μg/ml, each of the three models (linear, quadratic, log-linear)): < 3 ms
- effect on QTc interval duration, other ECG intervals, or ECG morphology (nacubactam alone, intensive ECG monitoring): did not reveal any significant effects
